What all share (assay): DTP human tumour cell line panel, 48 h
The test system of assay [1] is HT29 colon.
Assay [2] has as its system OVCAR-8 ovarian.
The test system of assay [3] is SK-MEL-5 melanoma.
Assay [4] has as its system COLO 205 colon.
Assay [5] relates to IGROV1 ovarian.
Assay [6] deals with MDA-MB-231 breast.
Assay [7] concerns RPMI-8226 leukemia.
The test system of assay [8] is HOP-92 NSCLC.

By TGI is commonly meant the concentration at which net growth stops. Lower therefore signals more potent growth arrest. By GI50 is commonly meant the concentration giving 50% growth inhibition.

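Method: 48-hour compound exposure of cells in 96-well plates, five concentrations, linear interpolation of endpoints. Abbreviation: GI50, concentration required for 50% inhibition of growth. TGI: total growth inhibition.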 Residues, ends and D or L forms follow the SMILES beside them. *: point of attachment. Boc = CC(C)(C)OC(=O)*; OBn = c1ccc(CO*)cc1

Turning to `O=C(CN1CCOCC1)c1ccc2c(c1)oc(=O)n2CCN1CCCC1`, the TGI in assay [1], in assay [2], in assay [3], in assay [4], in assay [5] and in assay [6] was more than 100 µM each time. The TGI in assay [7] was more than 100 µM.

With `CC(C)C(C/C=C1/CC(CO)(COC(=O)c2ccccc2)OC1=O)C(C)C` (stereo unspecified), the TGI is 35.8 µM in assay [8]; 36.4 µM in assay [1]; 48.5 µM in assay [2]; 21.3 µM in assay [3]; 17.4 µM in assay [4]; 38.2 µM in assay [5]. In addition, the TGI in assay [6] is 32.8 µM.

As for `COc1ccc(/C=C2\Sc3nnc(CNc4ccc(Cl)cc4)n3N=C2c2cc(F)c(Cl)cc2Cl)cc1OC`, the TGI in assay [8], in assay [1], in assay [2], in assay [3], in assay [5] and in assay [6] was more than 100 µM each time. Further, the TGI in assay [7] turned out to be 42.2 µM.

As to `Cc1nc2ccc(NC3OC(CO)C(O)C(O)C3O)cc2c(=O)n1-c1ccccc1` (stereo unspecified), the TGI in assay [1], in assay [2], in assay [3], in assay [4], in assay [5] and in assay [6] was more than 100 µM in each case. The TGI in assay [7] was more than 100 µM.

For the molecule `CC(C)CC(NC(=O)OC(C)(C)C)C(=O)N1CCCC1C(=O)OCc1ccccc1` (stereo not drawn) (Boc-Leu-Pro-OBn; configuration not given here), the TGI in assay [8], in assay [1], in assay [2], in assay [3], in assay [4] and in assay [5] was more than 100 µM throughout. In addition, the total growth inhibition concentration (TGI) in assay [6] was more than 100 µM.

With `O=[N+]([O-])C(=C1Nc2ccccc2N1)/C(Cl)=C(/Cl)N1CCOCC1`, the TGI in assay [1], in assay [2], in assay [4], in assay [6] and in assay [7] was more than 100 µM in each case.

Regarding `COc1cc(S(=O)(=O)Nc2ccc(-c3csc(N4C(=O)C(Cl)C4c4ccccc4)n3)cc2)ccc1Cl` (stereo unspecified), the TGI is 33.7 µM in assay [8]; more than 100 µM in assay [1]; 39.9 µM in assay [2]; 88.1 µM in assay [3]; more than 100 µM in assay [4]; 22.4 µM in assay [5]. In assay [7], this molecule had a TGI of more than 100 µM.

On to `CC1=CC(C)C(C)N(CCNS(=O)(=O)c2ccc(C)cc2)c2ccccc21` (stereo unspecified), for which the TGI in assay [8] was 36.1 µM; in assay [1], 17.4 µM; in assay [2] it was 24 µM; in assay [4] it was 17.3 µM; in assay [5] it was 23.4 µM; in assay [6], 24.2 µM. In addition, the total growth inhibition concentration (TGI) in assay [7] was found to be 22.3 µM.

`Cc1ccc(N=NN(C)C(=O)C(C)N)cc1` (stereo unspecified): the TGI in assay [8], in assay [1], in assay [2], in assay [3], in assay [4] and in assay [5] was more than 100 µM each time. In assay [7], this molecule displayed a TGI of more than 100 µM.

Consider `Fc1cccc(Cl)c1C1SCc2nc3cc4ccccc4cc3n21` (stereo unspecified), for which the total growth inhibition concentration (TGI) in assay [8] is 72.3 µM; in assay [1] it was more than 100 µM; in assay [2], more than 100 µM; in assay [4] it was more than 100 µM; in assay [5] it was more than 100 µM; in assay [6], more than 100 µM. Also, the TGI in assay [7] is more than 100 µM.

With `O=C(O)CNn1c(SCC(=O)O)nnc(/C=C/c2c(O)ccc3ccccc23)c1=O`, the TGI in assay [1] is more than 100 µM; in assay [2], 28.6 µM; in assay [3], 42.8 µM; in assay [4], more than 100 µM; in assay [5], 0.962 µM; in assay [7], more than 100 µM.

In the case of `N=C(N)c1ccc(-c2ccc(-c3cccs3)s2)s1`, the results for the GI50 in assay [8], in assay [3] and in assay [6] were 1.06 µM, 1.02 µM and 1.5 µM, respectively. Further, the TGI worked out at 2.6 µM in assay [8], 2.34 µM in assay [3] and 3.13 µM in assay [6].

Regarding `O=[N+]([O-])/C(C(Cl)=C(Cl)Cl)=C(\Nc1ccccc1)n1nnc2ccccc21`, the TGI is more than 100 µM in assay [1]; more than 100 µM in assay [2]; more than 100 µM in assay [4]; more than 100 µM in assay [6]; 93 µM in assay [7].

Take `COC(=O)[C@@H](Cc1ccccc1)N1O[C@]12CCCC[C@@H]2NC(=O)OC(C)(C)C` (stereo partly specified): the TGI amounted to 55.5 µM in assay [8]; 32.2 µM in assay [1]; 35.8 µM in assay [3]; 75.5 µM in assay [4]; 27.8 µM in assay [5]; 42.4 µM in assay [6]. Further, the TGI in assay [7] was more than 100 µM.

On to `NC(=O)/C=c1/c2ccccc2n2nc3ccccc3c12`, for which the TGI in assay [1] was 29.8 µM; in assay [2], 27.4 µM; in assay [3] it was more than 100 µM; in assay [4], 40.6 µM; in assay [5], 35 µM; in assay [6], 7.52 µM. The concentration for total growth inhibition (TGI) in assay [7] was determined as 29.1 µM.

Regarding `COc1ccc(N=Nc2c(C)c(C#N)c(=S)n(C3OC(CO)C(O)C(O)C3O)c2C)cc1` (stereo unspecified), the TGI was 64.8 µM in assay [8]; more than 100 µM in assay [1]; 35.1 µM in assay [3]; more than 100 µM in assay [4]; more than 100 µM in assay [5]; more than 100 µM in assay [6]. Also, in assay [7], the TGI was more than 100 µM.

Turning to `Clc1ccc(-c2ccc(-c3nnc(COc4ccc(OCc5nnc(-c6ccc(-c7ccc(Cl)cc7Cl)o6)o5)c(Cl)c4)o3)o2)c(Cl)c1`, the TGI in assay [1], in assay [2], in assay [3], in assay [4], in assay [5] and in assay [6] was more than 100 µM throughout. For the same molecule, the TGI in assay [7] is more than 100 µM.

For the molecule `CCOC(=O)c1c(-c2ccc(Br)cc2)ccn1C`, the TGI in assay [1], in assay [2], in assay [3], in assay [4], in assay [5] and in assay [6] was more than 10 µM in each case. The total growth inhibition concentration (TGI) in assay [7] is more than 10 µM.

Take `O=C(N/N=C/c1ccccc1O)c1ccccc1Nc1ccccc1C(=O)N/N=C/c1ccccc1O`: the TGI in assay [1] was 4.99 µM; in assay [2], 11.7 µM; in assay [3], 8.15 µM; in assay [4], more than 100 µM; in assay [5], more than 100 µM; in assay [6], more than 100 µM.
